According to patent US12496298B2, “Natural killer cells” (Imperial College Innovations Limited, priority 2017, dated 2025):

System: mouse NK cell (NK1.1+CD3−) production from HPCs
Assay: In vitro development of NK cells from mouse HPCs (NK cell development assay, flow cytometry at Day 9)
Format: cell-based
Description: FIG. 2: Timeline of NK cell development assay. HPCs were isolated and cultured plus FIt3L, IL-7 and SCF cytokines. At Day 2, they were then transferred onto OP9 stromal cells plus or minus drug in culture medium plus the IL-15 cytokine. The media of the cultures were changed at Day 5 and the cells were harvested and analysed at Day 9.
Lineage negative cells are enriched for Hematopoietic Progenitor Cells (HPCs). […] Cells were harvested on Day 9 and analysed using flow cytometry to determine the number of NK1.1^+CD3^− cells (FIG. 2). NK1.1^+ and CD3^− are two cell surface markers that can define mouse NK cells. OP9 stromal cells were readily excluded from the analysis, as the OP9 stromal cells used were GFP positive (FIG. 3B). Flow cytometry data were analysed as the fold increase, relative to the ‘No drug’ or untreated control in each experiment. This is because the absolute percentage of NK cell production varies between experiments.
Lineage negative HSCs were purified from mouse bone marrow by crushing the leg bones in Phosphate-buffered Saline (PBS) with 2% fetal calf serum (FCS) (STEMCELL Technologies), topped up to 40 ml with magnetic-activated cell sorting (MACS) buffer (PBS, 2 mM EDTA, 0.5% BSA, sterile and filtered) and centrifuged at 800 g for 2 minutes. The cells were resuspended in PE-conjugated cocktail, (20 μl of anti-B220 (RA3-6B2), anti-mouse CD2 (RM2-5, anti-Ter119 (TER119) and anti-NK.1.1 (PK136) and 5 μl of anti-CD11b (M1/70) and anti-GR-1 (RB6-8C5) antibodies (all from Bioscience)) incubated for 5 minutes at 4° C., centrifuged and resuspended in anti-PE microbeads for 15 minutes at 4° C. Cells were washed in MACS buffer and passed through MACS columns. This allowed negative selection of HPCs. Following lineage depletion, 50 μl of the cells was analysed using flow cytometry to check for purity.
The HPCs were plated and cultured in 24-well plates at a concentration of 5×10^5 HPCs/well in 1 ml of complete cytokine medium (Dulbecco's modified eagle medium (DMEM) (Sigma Aldrich), 10% FCS, 50 μM β-Mercaptoethanol, 10 ng/ml Flt3-ligand (FIt3L) (R&D Systems), 10 ng/ml IL-7 (R&D Systems), 100 ng/ml stem cell factor (SCF) (R&D Systems) and 1% P/S) for 2 days at 37° C., 5% CO2. The HPCs were then transferred onto OP9 cells at 4500 cells/well for 96-well plate experiments and 3×10^4 cells/well for 24-well plate experiments in mouse NK cells differentiation medium (Alpha-MEM (Sigma Aldrich) plus 20% FCS, 1% P/S and 30 ng/ml IL-15). Cells were left in culture at 37° C., 5% CO2 for 7 days with a change of mouse NK cells differentiation medium at day 3 or 4.
Cells to be analysed by flow cytometry were passed through 40 μm cell strainers to remove clumps and washed with PBS buffer, centrifuged at 800 g for 2 minutes and resuspended in 100 μl fluorescent activated cell sorting (FACS) buffer (PBS plus 1% BSA) with appropriate fluorochrome conjugated antibodies at a dilution of 1 in 300. Cells were stained with the following antibodies, all of which were anti-mouse and are from eBioscience unless specified: 2B4 (clone m2B4(B6) 458.1; BioLegend), CD2 (RM2-5), CD3 (17A2), CD11b (M1/70), CD19 (1D3), CD27 (LG.7F9), CD122 (TM-b1), CD127 (A7R34), B220 (RA3-6B2), ckit (ACK2), Flt3 (A2F10), Gr1 (RB6-8C5), NK1.1 (PK136), Sca1 (D7), Ter119 (TER119), NKp46 (29A1.4) anti-human CD45 (HI30), anti-human CD2 (RPA-2.10) and anti-human CD56 (CMSSB). The lineage cocktail contained B220, CD2, CD11b, Gr1, NK1.1, and Ter119. Cells were stained in the dark at 4° C. for 30 minutes and then washed with 2 ml FACS buffer, centrifuged and resuspend in 300 μl FACS buffer plus Propidium Iodide (PI) also at a dilution of 1 in 300. Flow cytometry was performed using LSRFortessa™ cell analyser (Becton Dickinson Bioscience), sorted using FACSAria (Becton Dickinson) as indicated and full data analysis was done using FlowJo Software.

NC(=O)c1ccc(-c2nc(-c3ccc4c(c3)OCCO4)c(-c3ccccn3)[nH]2)cc1 [D4476]
NK cell production compared to 'No drug' control (20 μM added Day 2, analysed Day 9, screen (FIG. 3)): significant increase

CC(C)(C)OC(=O)CN(Cc1ccc(Cl)cc1)Cc1ccc([N+](=O)[O-])s1 [GSK4112]
NK cell production reduced (GSK4112 tested at 2, 5, 10 and 20 μM (FIG. 6), concentration not given): ~50%
effect on NK cell production (summary in Discussion): decreasing NK cell production

N#Cc1ccc(-c2csc(NN=C3CCCC3)n2)cc1 [Remodelin]
NK cell production compared to 'No drug' control (5 μM added Day 2, analysed Day 9, screen (FIG. 3)): significant increase
